{"source": "ChEMBL document CHEMBL1155461", "about": "“Emerging targets in osteoporosis disease modification” (J Med Chem, 2010)", "key": {"[1]": {"assay": "Cmax in rat at 50 mg/kg, po", "format": "ADME, organism-based", "design": "dose 50 mg/kg, route oral", "conditions": "in vivo"}, "[2]": {"assay": "Selectivity for cathepsin K over cathepsin S"}, "[3]": {"assay": "Selectivity for cathepsin K over cathepsin B"}, "Cathepsin K": {"target": "Cathepsin K (Rattus norvegicus, UniProt O35186)", "sequence (O35186 whole entry)": "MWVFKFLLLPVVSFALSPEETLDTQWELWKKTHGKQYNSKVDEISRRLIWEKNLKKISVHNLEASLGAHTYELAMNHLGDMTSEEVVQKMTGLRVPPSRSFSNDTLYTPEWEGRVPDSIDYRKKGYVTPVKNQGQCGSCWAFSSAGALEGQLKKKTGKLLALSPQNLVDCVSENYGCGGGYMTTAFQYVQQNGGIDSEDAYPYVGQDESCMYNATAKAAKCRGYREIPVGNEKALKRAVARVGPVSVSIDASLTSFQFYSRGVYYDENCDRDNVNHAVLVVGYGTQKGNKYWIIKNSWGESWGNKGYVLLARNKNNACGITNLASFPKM", "assay": "Inhibition of rat cathepsin K"}, "[4]": {"assay": "Selectivity for cathepsin K over cathepsin L"}, "[5]": {"assay": "AUC in rat at 50 mg/kg, po", "format": "ADME, organism-based", "design": "dose 50 mg/kg, route oral", "conditions": "plasma"}, "[6]": {"assay": "Selectivity for cathepsin K over cathepsin F"}, "Homo sapiens [7]": {"system": "Homo sapiens", "assay": "Antiosteoporotic activity in patient with osteoporosis assessed as increase in lumbar spine bone mineral density at 50 mg/kg, po administered weekly for 24 months relative to placebo control", "format": "functional"}, "Homo sapiens [8]": {"system": "Homo sapiens", "assay": "Antiosteoporotic activity in patient with osteoporosis assessed as increase in hip bone mineral density at 50 mg/kg, po administered weekly for 24 months relative to placebo control", "format": "functional, Bone of hip region"}, "[9]": {"assay": "Selectivity for cathepsin K over cathepsin H"}, "[10]": {"assay": "Bioavailability in rat", "format": "ADME, organism-based", "conditions": "in vivo"}, "[11]": {"assay": "Bioavailability in dog", "format": "ADME, organism-based, Canis lupus familiaris", "conditions": "in vivo"}, "[12]": {"assay": "Selectivity for cathepsin K over cathepsin V"}, "MC3T3-E1 [13]": {"system": "MC3T3-E1", "assay": "Increase in octeocalcin mRNA expression in mouse MC3T3-E1 cells at 30 uM relative to control", "format": "functional"}, "MC3T3-E1 [14]": {"system": "MC3T3-E1", "assay": "Increase in ALP mRNA expression in mouse MC3T3-E1 cells at 30 uM relative to control", "format": "functional"}, "[15]": {"target": "Extracellular calcium-sensing receptor (Bos taurus, UniProt P35384)", "sequence (P35384 whole entry)": "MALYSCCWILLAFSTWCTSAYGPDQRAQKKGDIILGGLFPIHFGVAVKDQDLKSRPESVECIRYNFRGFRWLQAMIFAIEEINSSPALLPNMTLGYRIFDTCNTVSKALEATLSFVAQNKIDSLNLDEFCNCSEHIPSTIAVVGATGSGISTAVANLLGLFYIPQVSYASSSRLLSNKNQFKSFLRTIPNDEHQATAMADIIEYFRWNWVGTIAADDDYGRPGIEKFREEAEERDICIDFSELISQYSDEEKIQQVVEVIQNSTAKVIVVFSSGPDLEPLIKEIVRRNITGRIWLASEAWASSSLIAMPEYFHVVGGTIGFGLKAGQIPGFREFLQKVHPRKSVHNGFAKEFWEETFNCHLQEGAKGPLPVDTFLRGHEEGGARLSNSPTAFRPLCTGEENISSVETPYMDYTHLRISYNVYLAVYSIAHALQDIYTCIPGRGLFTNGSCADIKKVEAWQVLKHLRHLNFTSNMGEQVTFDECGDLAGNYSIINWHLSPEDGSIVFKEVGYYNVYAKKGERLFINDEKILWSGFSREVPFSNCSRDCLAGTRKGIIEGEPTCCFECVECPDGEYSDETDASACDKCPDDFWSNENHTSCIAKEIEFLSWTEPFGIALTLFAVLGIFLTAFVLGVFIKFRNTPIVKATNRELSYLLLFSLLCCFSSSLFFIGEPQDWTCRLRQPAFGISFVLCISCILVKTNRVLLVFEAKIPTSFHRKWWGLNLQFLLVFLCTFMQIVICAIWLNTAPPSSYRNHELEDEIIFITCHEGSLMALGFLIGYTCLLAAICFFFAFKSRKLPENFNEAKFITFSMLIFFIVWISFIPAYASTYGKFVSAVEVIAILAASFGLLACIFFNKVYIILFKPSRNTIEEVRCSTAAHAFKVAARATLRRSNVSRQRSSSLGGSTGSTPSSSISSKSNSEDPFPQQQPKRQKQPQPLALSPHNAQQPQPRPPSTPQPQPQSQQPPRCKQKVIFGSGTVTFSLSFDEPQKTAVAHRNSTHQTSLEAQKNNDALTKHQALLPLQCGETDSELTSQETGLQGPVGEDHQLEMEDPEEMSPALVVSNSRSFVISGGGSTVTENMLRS", "assay": "Inhibition of CaSR in bovine parathyroid cells assessed as increase in PTH level", "format": "cell-based"}, "[16]": {"target": "Integrin alpha-IIb/beta-3 (Homo sapiens) (UniProt P05106+P08514)", "assay": "Inhibition of integrin alpha2Bbeta3", "format": "protein-complex assay"}, "[17]": {"assay": "Aqueous solubility of the compound", "format": "physicochemical", "conditions": "aqueous medium"}, "[18]": {"assay": "Clearance in rat", "format": "ADME, organism-based", "conditions": "in vivo"}, "[19]": {"target": "Vitronectin (Homo sapiens) (UniProt P04004)", "sequence (P04004 whole entry)": "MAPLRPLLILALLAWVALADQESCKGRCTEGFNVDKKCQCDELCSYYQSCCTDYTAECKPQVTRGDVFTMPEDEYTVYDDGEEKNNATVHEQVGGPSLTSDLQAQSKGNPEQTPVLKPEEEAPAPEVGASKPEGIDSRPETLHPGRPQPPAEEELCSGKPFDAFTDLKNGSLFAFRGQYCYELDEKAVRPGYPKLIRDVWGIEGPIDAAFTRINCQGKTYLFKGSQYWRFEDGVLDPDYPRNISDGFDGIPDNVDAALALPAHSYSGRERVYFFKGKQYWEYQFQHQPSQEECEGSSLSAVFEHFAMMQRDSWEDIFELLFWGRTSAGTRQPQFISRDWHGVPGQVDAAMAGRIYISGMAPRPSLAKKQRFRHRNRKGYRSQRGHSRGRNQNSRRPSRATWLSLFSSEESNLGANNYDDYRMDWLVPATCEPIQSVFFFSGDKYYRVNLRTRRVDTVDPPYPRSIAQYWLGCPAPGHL", "assay": "Inhibition of vitronectin"}, "[20]": {"assay": "Half life in rat", "format": "ADME, organism-based", "conditions": "in vivo"}, "Integrin alpha-V/beta-3": {"target": "Integrin alpha-V/beta-3 (Homo sapiens, UniProt P05106+P06756)", "sequence (P05106 27-788 limits assumed)": "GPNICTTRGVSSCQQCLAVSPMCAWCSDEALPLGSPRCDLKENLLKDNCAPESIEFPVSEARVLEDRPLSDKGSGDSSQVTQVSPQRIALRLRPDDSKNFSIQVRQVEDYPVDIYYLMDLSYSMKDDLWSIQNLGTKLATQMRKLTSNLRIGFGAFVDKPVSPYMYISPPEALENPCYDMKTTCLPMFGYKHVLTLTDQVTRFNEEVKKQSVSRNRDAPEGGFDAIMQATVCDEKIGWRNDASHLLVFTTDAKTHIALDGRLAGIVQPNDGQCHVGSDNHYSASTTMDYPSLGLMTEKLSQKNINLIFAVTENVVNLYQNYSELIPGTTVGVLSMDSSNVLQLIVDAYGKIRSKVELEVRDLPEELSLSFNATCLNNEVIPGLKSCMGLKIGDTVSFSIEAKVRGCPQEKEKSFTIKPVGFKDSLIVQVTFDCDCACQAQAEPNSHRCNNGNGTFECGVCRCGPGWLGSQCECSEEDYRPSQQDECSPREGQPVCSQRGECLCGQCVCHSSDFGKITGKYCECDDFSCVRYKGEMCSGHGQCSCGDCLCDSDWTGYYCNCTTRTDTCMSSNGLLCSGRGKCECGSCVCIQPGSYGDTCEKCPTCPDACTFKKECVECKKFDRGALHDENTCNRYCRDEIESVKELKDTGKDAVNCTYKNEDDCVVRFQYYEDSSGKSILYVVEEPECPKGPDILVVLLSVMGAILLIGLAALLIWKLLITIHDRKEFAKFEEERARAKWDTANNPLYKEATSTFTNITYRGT", "sequence (P06756 31-889 limits assumed)": "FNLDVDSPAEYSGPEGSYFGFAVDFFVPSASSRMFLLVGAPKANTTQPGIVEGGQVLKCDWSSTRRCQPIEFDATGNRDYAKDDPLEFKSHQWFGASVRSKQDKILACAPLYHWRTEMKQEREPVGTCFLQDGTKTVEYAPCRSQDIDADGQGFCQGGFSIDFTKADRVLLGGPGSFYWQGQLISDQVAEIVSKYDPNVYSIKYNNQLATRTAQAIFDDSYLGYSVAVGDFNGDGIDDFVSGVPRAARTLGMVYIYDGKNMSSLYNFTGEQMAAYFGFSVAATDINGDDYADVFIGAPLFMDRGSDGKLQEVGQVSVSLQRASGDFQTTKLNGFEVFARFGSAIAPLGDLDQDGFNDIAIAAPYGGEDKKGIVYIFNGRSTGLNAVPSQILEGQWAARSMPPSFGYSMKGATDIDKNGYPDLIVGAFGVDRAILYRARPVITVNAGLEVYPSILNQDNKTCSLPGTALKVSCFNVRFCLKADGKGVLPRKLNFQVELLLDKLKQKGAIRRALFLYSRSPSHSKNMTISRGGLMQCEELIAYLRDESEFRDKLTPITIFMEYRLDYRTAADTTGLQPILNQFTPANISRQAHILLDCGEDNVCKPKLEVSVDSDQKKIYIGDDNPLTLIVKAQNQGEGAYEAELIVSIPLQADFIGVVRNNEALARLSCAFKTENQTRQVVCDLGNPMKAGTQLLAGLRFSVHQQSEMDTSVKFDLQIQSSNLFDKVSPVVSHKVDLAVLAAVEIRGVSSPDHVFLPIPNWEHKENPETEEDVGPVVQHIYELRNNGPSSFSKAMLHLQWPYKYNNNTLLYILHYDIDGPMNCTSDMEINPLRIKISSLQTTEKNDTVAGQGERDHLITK", "sequence (P06756 891-1048 limits assumed)": "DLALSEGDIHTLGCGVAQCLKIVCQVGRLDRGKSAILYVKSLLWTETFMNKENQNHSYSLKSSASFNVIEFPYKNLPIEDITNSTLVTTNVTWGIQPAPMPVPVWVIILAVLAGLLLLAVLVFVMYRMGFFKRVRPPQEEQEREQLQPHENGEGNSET"}, "Homo sapiens [21]": {"species_on_record": "Homo sapiens", "assay": "Plasma protein binding in human", "conditions": "read-out: PPB (converted)"}, "[22]": {"assay": "Clearance in dog", "format": "ADME, organism-based, Canis lupus familiaris", "conditions": "in vivo"}, "[23]": {"assay": "Oral bioavailability in rat", "format": "ADME, organism-based", "conditions": "in vivo"}, "[24]": {"target": "T1, Extracellular calcium-sensing receptor (Homo sapiens, UniProt P41180)", "T1 sequence (P41180 whole entry)": "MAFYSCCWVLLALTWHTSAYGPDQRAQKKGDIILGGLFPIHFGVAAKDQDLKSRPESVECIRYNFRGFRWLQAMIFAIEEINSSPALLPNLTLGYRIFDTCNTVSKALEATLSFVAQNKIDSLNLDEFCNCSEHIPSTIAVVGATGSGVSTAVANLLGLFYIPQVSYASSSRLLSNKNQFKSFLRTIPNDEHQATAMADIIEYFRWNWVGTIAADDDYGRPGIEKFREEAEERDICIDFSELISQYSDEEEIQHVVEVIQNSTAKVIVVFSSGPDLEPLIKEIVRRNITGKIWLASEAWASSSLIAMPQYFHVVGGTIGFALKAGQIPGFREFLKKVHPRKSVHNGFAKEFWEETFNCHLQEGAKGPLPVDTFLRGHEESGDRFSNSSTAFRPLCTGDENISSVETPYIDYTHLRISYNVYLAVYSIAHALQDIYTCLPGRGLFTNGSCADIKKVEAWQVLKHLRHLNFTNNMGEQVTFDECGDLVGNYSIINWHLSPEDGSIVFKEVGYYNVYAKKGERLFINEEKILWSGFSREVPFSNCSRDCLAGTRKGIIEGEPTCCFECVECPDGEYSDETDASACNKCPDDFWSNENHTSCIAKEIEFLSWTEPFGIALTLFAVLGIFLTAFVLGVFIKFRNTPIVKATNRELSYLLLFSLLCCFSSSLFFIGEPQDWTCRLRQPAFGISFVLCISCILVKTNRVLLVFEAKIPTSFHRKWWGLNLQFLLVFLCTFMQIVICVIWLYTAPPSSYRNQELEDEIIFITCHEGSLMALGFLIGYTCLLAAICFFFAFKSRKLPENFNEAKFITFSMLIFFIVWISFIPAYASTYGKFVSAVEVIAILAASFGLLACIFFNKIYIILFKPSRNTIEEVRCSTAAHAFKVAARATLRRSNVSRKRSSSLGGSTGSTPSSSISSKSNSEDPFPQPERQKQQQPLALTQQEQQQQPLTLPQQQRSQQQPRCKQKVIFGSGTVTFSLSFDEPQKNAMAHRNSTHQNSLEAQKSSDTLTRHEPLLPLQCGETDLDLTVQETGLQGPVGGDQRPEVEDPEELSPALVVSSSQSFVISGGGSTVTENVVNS"}}, "data": [{"smiles": "CC[C@@H](CNc1ccc(OCC(=O)O)cc1)NC(=O)C1(Nc2cccc(-c3ccccc3)c2)CCCCC1", "values": [{"measurement": "Cmax", "setting": "[1]", "value": 9200, "unit": "ng/mL"}, {"measurement": "Selectivity ratio", "setting": "[2]", "value": 2080}, {"measurement": "Selectivity ratio", "setting": "[3]", "value": "> 4170"}, {"measurement": "IC50", "setting": "Cathepsin K", "value": 58, "unit": "nM"}, {"measurement": "Selectivity ratio", "setting": "[4]", "value": "> 4170"}, {"measurement": "AUC", "setting": "[5]", "value": 104, "unit": "µg·h/mL"}]}, {"smiles": "CC(C)(F)C[C@H](N[C@@H](c1ccc(-c2ccc(S(C)(=O)=O)cc2)cc1)C(F)(F)F)C(=O)NC1(C#N)CC1", "note": "[ODANACATIB]", "values": [{"measurement": "Selectivity ratio", "setting": "[6]", "value": 3980}, {"measurement": "Selectivity ratio", "setting": "[2]", "value": 300}, {"measurement": "Selectivity ratio", "setting": "[3]", "value": 5170}, {"measurement": "Selectivity ratio", "setting": "[4]", "value": 15000}, {"measurement": "Activity", "setting": "Homo sapiens [7]", "value": 5.5, "unit": "%"}, {"measurement": "Activity", "setting": "Homo sapiens [8]", "value": 3.2, "unit": "%"}, {"measurement": "Selectivity ratio", "setting": "[9]", "value": "> 50000"}, {"measurement": "bioavailability", "setting": "[10]", "value": "≤ 38", "unit": "%"}, {"measurement": "bioavailability", "setting": "[11]", "value": "≤ 100", "unit": "%"}, {"measurement": "Selectivity ratio", "setting": "[12]", "value": 3810}]}, {"smiles": "C/C(=C\\Cc1c(O)cc2occ(-c3ccc(O)cc3)c(=O)c2c1O)CO", "note": "[GLABRISOFLAVONE]", "values": [{"measurement": "Activity", "setting": "MC3T3-E1 [13]", "value": 58, "unit": "%"}, {"measurement": "Activity", "setting": "MC3T3-E1 [14]", "value": 58, "unit": "%"}]}, {"smiles": "CC(C)(Cc1ccc2ccccc2c1)NC[C@@H](O)COc1cccc(Cl)c1C#N", "values": [{"measurement": "EC50", "setting": "[15]", "value": 41, "unit": "nM"}]}, {"smiles": "COc1cc(C(=O)NC[C@H](NS(=O)(=O)c2ccccc2)C(=O)O)ccc1N1CCC(NC2=NCCCN2)CC1", "values": [{"measurement": "INH", "setting": "[16]", "value": 0.44, "unit": "nM"}, {"measurement": "solubility", "setting": "[17]", "value": 1300, "unit": "µg/mL"}, {"measurement": "clearance", "setting": "[18]", "value": 47, "unit": "mL/min/kg"}, {"measurement": "INH", "setting": "[19]", "value": 110, "unit": "nM"}, {"measurement": "half-life", "setting": "[20]", "value": 46, "unit": "min"}, {"measurement": "IC50", "setting": "Integrin alpha-V/beta-3", "value": 0.19, "unit": "nM"}]}, {"smiles": "COc1ccc([C@@H](CCC[C@H](O)CCc2ccc3c(n2)NCCC3)CC(=O)O)cn1", "values": [{"measurement": "fraction unbound", "setting": "Homo sapiens [21]", "value": 0.07}, {"measurement": "clearance", "setting": "[22]", "value": 2.5, "unit": "mL/min/kg"}, {"measurement": "bioavailability", "setting": "[11]", "value": 60, "unit": "%"}]}, {"smiles": "Cc1ccc(CC(C)(C)NC[C@@H](O)CO[C@H](C)c2ccccc2[C@@H]2C[C@@H]3C[C@H]2[C@H]2[C@H](C(=O)O)[C@@H]32)cc1F", "values": [{"measurement": "bioavailability", "setting": "[23]", "value": 60, "unit": "%"}, {"measurement": "IC50", "setting": "[24]", "value": 25, "unit": "nM"}]}]}
